Source: patent US20250186466A1, “ZLT-007 AND METHODS OF TREATING DIABETIC NEUROPATHY” (IIere Therapeutics LLC, priority 2022, published 2025)

Key:
[1] = tested on: subjects with pain associated with diabetic neuropathy; assay: 12-week clinical study, Daily Pain Numeric Rating Scale (NRS); type: in vivo, human
Procedure: (§1) To determine the effect of ZLT-L-007 in subjects with pain associated with diabetic neuropathy, an observational 12-week clinical study to evaluate the efficacy, safety and tolerability of ZLT-L-007 versus Pregabalin (300 Mg/Day) was conducted.
Primary endpoints of the study included: 1. Recording Daily Pain Numeric Rating Scale (NRS) at Baseline, Day 30, Day 60, and Day 90.
Three groups were used to evaluate the effect of ZLT-L-007 in subjects with pain associated with diabetic neuropathy: Group 1 (Pregabalin), Group 2 (ZLT-L-007 pharmaceutical composition+terpene composition), and Group 3 (Pregabalin and ZLT-L-007 pharmaceutical composition+terpene composition). More detailed information regarding each group's treatment is provided below.
Group 3 subjects were already taking pregabalin/Lyrica® at the prescribed dose recommended by their doctor. Subjects then received one capsule by mouth twice daily of the ZLT-L-007 pharmaceutical composition. Participants were also given one capsule by mouth twice daily of a terpene composition that comprised 0.25 mg of myrcene and 0.25 mg of linalool.
Group 3 was administered one capsule by mouth twice daily of the ZLT-L-007 pharmaceutical composition.. Participants were also given one capsule by mouth twice daily of a terpene composition that comprised 0.25 mg of myrcene and 0.25 mg of linalool.

[2] = tested on: subjects with pain associated with diabetic neuropathy; assay: 12-week clinical study, pain Visual Analog Scale (VAS); type: in vivo, human; details: Day 30, Day 60, Day 90
Procedure: as §1

## CC(C)C[C@H](CN)CC(=O)O [Pregabalin]
[1]; 30-day follow-up, ZLT-L-007 one capsule by mouth twice daily plus terpene capsule
  NRS Severity, median percent change from baseline: −33.33%
[1]; 60-day follow-up
  NRS Severity, median percent change from baseline: −20.00%
[1]; 90-day follow-up
  NRS Severity, median percent change from baseline: −35.00%
[1]; all follow-up periods
  NRS Severity, median percent change from baseline, range: −20.00% to −35.00%
[2]
  VAS pain severity, median percent change from baseline, range: −33.33% to −35.00%
